The target in the first assay is T1, Menin-MLL (Homo sapiens, UniProt O00255).
T1 construct: His-Menin (M1-L615 end); purchased BIORTUS BP9210
T1 sequence (O00255 1-615 isoform O00255-1): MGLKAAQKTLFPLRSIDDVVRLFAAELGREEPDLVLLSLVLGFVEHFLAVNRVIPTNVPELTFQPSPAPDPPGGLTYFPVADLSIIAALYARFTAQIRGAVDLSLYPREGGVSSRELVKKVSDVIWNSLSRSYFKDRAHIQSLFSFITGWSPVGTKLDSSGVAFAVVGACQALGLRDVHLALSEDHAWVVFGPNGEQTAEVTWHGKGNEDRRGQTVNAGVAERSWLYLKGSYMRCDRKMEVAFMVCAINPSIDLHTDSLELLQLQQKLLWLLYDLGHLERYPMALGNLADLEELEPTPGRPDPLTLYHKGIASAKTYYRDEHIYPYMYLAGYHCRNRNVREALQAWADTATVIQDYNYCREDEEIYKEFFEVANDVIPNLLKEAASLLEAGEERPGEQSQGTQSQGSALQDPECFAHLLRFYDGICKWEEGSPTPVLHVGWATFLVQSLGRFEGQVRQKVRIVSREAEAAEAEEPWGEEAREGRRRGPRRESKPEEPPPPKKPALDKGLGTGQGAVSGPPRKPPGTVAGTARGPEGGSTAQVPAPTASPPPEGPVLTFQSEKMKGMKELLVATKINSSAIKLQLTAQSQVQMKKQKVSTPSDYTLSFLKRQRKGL
The assay can be described thus: Inhibitory activity against Menin-MLL binding (fluorescence polarization). As to conditions: Menin-MLL IC50, fluorescence polarization; 150 nM His-Menin, 15 nM FITC-MLL; 25°C for 60 min. In short, it runs like this: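 His-Menin (M1-L615, 150 nM) preincubated with compound 15 min at 25 °C in HEPES pH 7.5, 50 mM NaCl, 1 mM DTT, 0.01% BSA, then 15 nM FITC-MLL4-43 peptide added for 60 min at 25 °C. Fluorescence polarization read; IC50 from 4-parameter logistic fit, duplicates.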
A general note: Fluorescence polarisation rises when a labelled molecule tumbles more slowly, as on binding a larger partner.
By IC50 is commonly meant the concentration needed to halve the response being measured. Compound `CCN(C(=O)c1cc(F)ccc1-c1cc(C2CN(C(=O)[C@@H](NC)C(C)C)C2)cn2c(C)nc(F)c12)C(C)C` [Example 315] showed an IC50 of 0.039 µM.

Compound `CC[C@H](C)[C@H](NC)C(=O)N1CC(c2cc(-c3ccc(F)cc3C(=O)N(CC)C(C)C)c3c(F)nc(C)n3c2)C1` [Example 316] returned an IC50 of 0.099 µM.

Take `CCN(C(=O)c1cc(F)ccc1-c1cc(C2CN(C(=O)[C@@H](NC)C3CCCC3)C2)cn2c(C)nc(F)c12)C(C)C` [Example 317]: the IC50 worked out at 0.092 µM.

`CC[C@@H](C)[C@H](NC)C(=O)N1CC(c2cc(-c3ccc(F)cc3C(=O)N(CC)C(C)C)c3c(F)nc(C)n3c2)C1` [Example 318] had an IC50 of 0.039 µM.

The assay is the same for the next values; noted with them: fluorescence polarization; 150 nM His-Menin, 15 nM FITC-MLL; 25°C for 60 min; read-out: Menin-MLL IC50.
Regarding `Cc1nc(F)c2c(-c3ccc(F)cc3C(=O)N3CCOC[C@H]3C)cc(C3CN(C(CO)C4CCOCC4)C3)cn12` (stereo partly drawn) [Example 309, 2-[3-(1-fluoro-8-{4-fluoro-2-[(3R)-3-methylmorpholin-4-carbonyl]phenyl}-3-methylimidazo[1,5-a]pyridin-6-yl)azacyclobutan-1-yl]-2-(oxacyclohexan-4-yl)ethan-1-ol], the IC50 worked out at 0.06 µM.

For `CCN(C(=O)c1cc(F)ccc1-c1cc(C2CN([C@@H](CCCN3CCN(C)CC3)C(C)C)C2)cn2c(C)ncc12)C(C)C` [Example 310-1, N-ethyl-5-fluoro-2-(3-methyl-6-{1-[(3S)-2-methyl-6-(4-methylpiperazin-1-yl)hexan-3-yl]azacyclobutan-3-yl}imidazo[1,5-a]pyridin-8-yl)-N-(isopropyl)benzamide], the IC50 was 0.031 µM.

For the compound `CCN(C(=O)c1cc(F)ccc1-c1cc(C2CN([C@@H](CCCN3CCN(C(C)=O)CC3)C(C)C)C2)cn2c(C)ncc12)C(C)C` [Example 311-1, 2-(6-{1-[(3S)-6-(4-acetylpiperazin-1-yl)-2-methylhexan-3-yl]azacyclobutan-3-yl}-3-methylimidazo[1,5-a]pyridin-8-yl)-N-ethyl-5-fluoro-N-(isopropyl)benzamide], the IC50 came to 0.042 µM.

Consider `CCN(C(=O)c1cc(F)ccc1-c1cc(C2CN([C@@H](CCCN3CCN(C)CC3)C(C)C)C2)cn2c(C)nc(F)c12)C(C)C` [Example 312-1], for which the IC50 turned out to be 0.032 µM.

Consider `CCN(C(=O)c1cc(F)ccc1-c1cc(C2CN([C@@H](CCCN3CCN(C(C)=O)CC3)C(C)C)C2)cn2c(C)nc(F)c12)C(C)C` [Example 313], for which the IC50 is 0.048 µM.

Regarding `CCC(=O)N1CCC(C(C)N2CC(c3cc(-c4ccc(F)cc4C(=O)N4CCOC[C@H]4C)c4cnc(C)n4c3)C2)CC1` (stereo partly drawn) [Example 319, 1-(4-{1-[3-(8-{4-fluoro-2-[(3R)-3-methylmorpholin-4-carbonyl]phenyl}-3-methylimidazo[1,5-a]pyridin-6-yl)azacyclobutan-1-yl]ethyl}piperidin-1-yl)propan-1-one], the IC50 worked out at 0.019 µM.

Take `CCC(=O)N1CCC([C@H](C)N2CC(c3cc(-c4ccc(F)cc4C(=O)N4CCOC[C@H]4C)c4cnc(C)n4c3)C2)CC1` [Example 319-1, 1-{4-[(1S)-1-[3-(8-{4-fluoro-2-[(3R)-3-methylmorpholin-4-carbonyl]phenyl}-3-methylimidazo[1,5-a]pyridin-6-yl)azacyclobutan-1-yl]ethyl]piperidin-1-yl}propan-1-one]: the IC50 is 0.039 µM.

Consider `CCC(=O)N1CCC([C@@H](C)N2CC(c3cc(-c4ccc(F)cc4C(=O)N4CCOC[C@H]4C)c4cnc(C)n4c3)C2)CC1` [Example 319-2, 1-{4-[(1R)-1-[3-(8-{4-fluoro-2-[(3R)-3-methylmorpholin-4-carbonyl]phenyl}-3-methylimidazo[1,5-a]pyridin-6-yl)azacyclobutan-1-yl]ethyl]piperidin-1-yl}propan-1-one], for which the IC50 worked out at 0.328 µM.

On to `CCCC(=O)N1CCC(C(C)N2CC(c3cc(-c4ccc(F)cc4C(=O)N4CCOC[C@H]4C)c4cnc(C)n4c3)C2)CC1` (stereo partly shown) [Example 320], for which the IC50 came to 0.012 µM.

On to `Cc1nc(F)c2c(-c3ccc(F)cc3C(=O)N3CCOC[C@H]3C)cc(C3CN([C@H](CO[C@H]4CCN(C)C4)C(C)C)C3)cn12` [Example 322, (3R)-4-[5-fluoro-2-(1-fluoro-3-methyl-6-{1-[(2S)-3-methyl-1-{[(3S)-1-methylpyrrolidin-3-yl]oxy}butan-2-yl]azacyclobutan-3-yl}imidazo[1,5-a]pyridin-8yl)benzoyl]-3-methylmorpholine], for which the IC50 was 0.002 µM.

As for `Cc1ncc2c(-c3ccc(F)cc3C(=O)N3CCOC[C@H]3C)cc(C3CN([C@@H](CCCN4CCN(C)CC4)C(C)C)C3)cn12` [Example 323-1, (3R)-4-[5-fluoro-2-(3-methyl-6-{1-[(3S)-2-methyl-6-(4-methylpiperazin-1-yl)hexan-3-yl]azacyclobutan-3-yl}imidazo[1,5-a]pyridin-8-yl)benzoyl]-3-methylmorpholine], the IC50 is 0.179 µM.

For `CCN1CCN(CCC[C@@H](C(C)C)N2CC(c3cc(-c4ccc(F)cc4C(=O)N4CCOC[C@H]4C)c4cnc(C)n4c3)C2)CC1` [Example 324-1], the IC50 was 0.126 µM.

On to `CCN(C(=O)c1cc(F)ccc1-c1cc(C2CN([C@H](CCCN3CCC[C@H](O)C3)C(C)C)C2)cn2c(C)ncc12)C(C)C` [Example 327], for which the IC50 was 0.0018 µM.

On to `CC(=O)N1CCN(CCC[C@H](C(C)C)N2CC(c3cc(-c4ccc(F)cc4C(=O)N4CCOC[C@H]4C)c4c(F)nc(C)n4c3)C2)[C@H](C)C1` [Example 328], for which the IC50 stood at 0.016 µM.

As to `CC(=O)N1CCN(CCC[C@H](C(C)C)N2CC(c3cc(-c4ccc(F)cc4C(=O)N4CCOC[C@H]4C)c4c(F)nc(C)n4c3)C2)C[C@H]1C` [Example 330, 1-{(2R)-4-[(4R)-4-[3-(1-fluoro-8-{4-fluoro-2-[(3R)-3-methylmorpholin-4-carbonyl]phenyl}-3-methylimidazo[1,5-a]pyridin-6-yl)azacyclobutan-1-yl]-5-methylhexyl]-2-methylpiperazin-1-yl}ethan-1-one], the IC50 worked out at 0.016 µM.

For the compound `CC(=O)N1C[C@H]2C[C@@H]1CN2CCC[C@H](C(C)C)N1CC(c2cc(-c3ccc(F)cc3C(=O)N3CCOC[C@H]3C)c3c(F)nc(C)n3c2)C1` [Example 332, 1-[(1R,4R)-5-[(4R)-4-[3-(1-fluoro-8-{4-fluoro-2-[(3R)-3-methylmorpholin-4-carbonyl]phenyl}-3-methylimidazo[1,5-a]pyridin-6-yl)azacyclobutan-1-yl]-5-methylhexyl]-2,5-diazabicyclo[2.2.1]heptan-2-yl]ethan-1-one], the IC50 came out at 0.0093 µM.

Regarding `CC(=O)N1CCN(CCC[C@H](C(C)C)N2CC(c3cc(-c4ccc(F)cc4C(=O)N4CCOC[C@H]4C)c4c(F)nc(C)n4c3)C2)C2(CC2)C1` [Example 334], the IC50 came out at 0.03 µM.

For `CCC(=O)N1CCN(CCC[C@H](C(C)C)N2CC(c3cc(-c4ccc(F)cc4C(=O)N4CCOC[C@H]4C)c4c(F)nc(C)n4c3)C2)CC1` [Example 335], the IC50 is 0.008 µM.

As to `CC(=O)N1CCN(CCC[C@H](C(C)C)N2CC(c3cc(-c4ccc(F)cc4C(=O)N4CCOC[C@H]4C)c4c(F)nc(C)n4c3)C2)CC1(C)C` [Example 339], the IC50 amounted to 0.013 µM.

For the compound `CC(=O)N1CCN(CCC[C@H](C(C)C)N2CC(c3cc(-c4ccc(F)cc4C(=O)N4CCOC[C@H]4C)c4c(F)nc(C)n4c3)C2)CC12CC2` [Example 340], the concentration for half-maximal inhibition (IC50) was determined as 0.033 µM.

As to `CC(=O)N1C2CC1CN(CCC[C@H](C(C)C)N1CC(c3cc(-c4ccc(F)cc4C(=O)N4CCOC[C@H]4C)c4c(F)nc(C)n4c3)C1)C2` [Example 345], the IC50 came out at 0.018 µM.

Turning to `CC(=O)N1CC2CCC(C1)N2CCC[C@H](C(C)C)N1CC(c2cc(-c3ccc(F)cc3C(=O)N3CCOC[C@H]3C)c3cnc(C)n3c2)C1` [Example 348, 1-{8-[(4R)-4-[3-(8-{4-fluoro-2-[(3R)-3-methylmorpholin-4-carbonyl]phenyl}-3-methylimidazo[1,5-a]pyridin-6-yl)azacyclobutan-1-yl]-5-methylhexyl]-3,8-diazabicyclo[3.2.1]oct-3-yl}ethan-1-one], the IC50 was found to be 0.0073 µM.

In the case of `CC(=O)N1CCC([C@H](C(C)C)N2CC(c3cc(-c4ccc(F)cc4C(=O)N4CCOC[C@H]4C)c4c(F)nc(C)n4c3)C2)CC1` [Example 357-1, 1-{4-[(1S)-1-[3-(1-fluoro-8-{4-fluoro-2-[(3R)-3-methylmorpholin-4-carbonyl]phenyl}-3-methylimidazo[1,5-a]pyridin-6-yl)azacyclobutan-1-yl]-2-methylpropyl]piperidin-1-yl}ethan-1-one], the IC50 was found to be 0.0155 µM.

Turning to `CC(=O)N1CCC([C@@H](C(C)C)N2CC(c3cc(-c4ccc(F)cc4C(=O)N4CCOC[C@H]4C)c4c(F)nc(C)n4c3)C2)CC1` [Example 357-2, 1-{4-[(1R)-1-[3-(1-fluoro-8-{4-fluoro-2-[(3R)-3-methylmorpholin-4-carbonyl]phenyl}-3-methylimidazo[1,5-a]pyridin-6-yl)azacyclobutan-1-yl]-2-methylpropyl]piperidin-1-yl}ethan-1-one], the IC50 turned out to be 0.022 µM.

The record behind these values is patent EP4782453A1 (Beyang Therapeutics Co., Ltd., priority 2023, dated 2025).
